In patent US11312712B2, “Azabenzimidazoles and their use as AMPA receptor modulators” (Janssen Pharmaceutica NV, priority 2015, dated 2022):

Target: GluA1o-γ8 (GRIA1o-CACNG8 fusion construct) (Homo sapiens (Human), UniProt P42261+Q8WXS5)
Experiment: Calcium flux assay (FLIPR), inhibition of TARP γ8 dependent AMPA receptor activity
Type: cell-based
Conditions: GluA1o-γ8 (GRIA1o-CACNG8 fusion) in HEK293 cells, calcium flux after 15 μM glutamate
How it was run: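 HEK293 cells stably expressing a 1:1 GRIA1o–CACNG8 fusion were loaded with Calcium-5/6 dye plus compound in pH 7.4 HEPES-buffered saline. FLIPR calcium flux after 15 μM glutamate was normalized to untreated and 10 μM CP465022 controls, and a four-parameter logistic fit gave pIC50.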

GluA1o-γ8 (GRIA1o-CACNG8 fusion construct), sequence (P42261 other isoform, or with tags, fused parts or gaps): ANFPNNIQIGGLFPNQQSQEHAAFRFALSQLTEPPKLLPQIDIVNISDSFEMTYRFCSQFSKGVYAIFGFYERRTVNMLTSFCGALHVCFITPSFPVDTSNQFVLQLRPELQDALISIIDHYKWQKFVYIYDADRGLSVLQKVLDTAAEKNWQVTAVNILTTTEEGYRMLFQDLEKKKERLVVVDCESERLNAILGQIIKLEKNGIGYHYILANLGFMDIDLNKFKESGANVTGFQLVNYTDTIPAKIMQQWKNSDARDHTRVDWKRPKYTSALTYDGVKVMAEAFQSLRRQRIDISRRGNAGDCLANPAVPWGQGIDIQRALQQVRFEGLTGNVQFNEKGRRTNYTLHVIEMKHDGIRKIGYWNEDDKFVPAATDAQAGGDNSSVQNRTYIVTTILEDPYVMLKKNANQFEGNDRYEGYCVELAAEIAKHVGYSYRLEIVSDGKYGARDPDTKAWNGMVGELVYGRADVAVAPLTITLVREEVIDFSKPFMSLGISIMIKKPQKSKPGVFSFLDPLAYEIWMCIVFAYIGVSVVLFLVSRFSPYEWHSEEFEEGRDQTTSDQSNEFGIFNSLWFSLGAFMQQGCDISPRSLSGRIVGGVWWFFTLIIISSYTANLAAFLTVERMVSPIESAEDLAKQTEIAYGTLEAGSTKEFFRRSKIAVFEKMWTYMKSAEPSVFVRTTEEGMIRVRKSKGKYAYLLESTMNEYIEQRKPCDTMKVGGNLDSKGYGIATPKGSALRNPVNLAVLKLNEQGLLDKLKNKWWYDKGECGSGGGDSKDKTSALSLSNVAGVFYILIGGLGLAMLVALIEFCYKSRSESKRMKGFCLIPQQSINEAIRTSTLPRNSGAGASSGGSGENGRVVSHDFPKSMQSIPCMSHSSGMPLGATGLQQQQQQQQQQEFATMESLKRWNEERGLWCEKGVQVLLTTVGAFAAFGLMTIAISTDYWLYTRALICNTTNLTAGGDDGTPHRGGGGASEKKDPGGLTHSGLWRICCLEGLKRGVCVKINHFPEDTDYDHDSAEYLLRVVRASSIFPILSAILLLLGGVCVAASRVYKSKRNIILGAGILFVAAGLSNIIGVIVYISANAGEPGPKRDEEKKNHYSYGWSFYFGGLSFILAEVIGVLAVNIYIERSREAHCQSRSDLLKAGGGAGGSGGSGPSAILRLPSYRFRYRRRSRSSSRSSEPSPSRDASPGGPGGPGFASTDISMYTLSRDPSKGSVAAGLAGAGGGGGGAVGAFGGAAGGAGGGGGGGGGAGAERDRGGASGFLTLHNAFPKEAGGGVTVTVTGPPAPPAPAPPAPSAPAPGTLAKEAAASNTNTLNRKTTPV

Row | SMILES | IC50 [nM]
1 | O=c1[nH]c2ccc(-n3c(-c4ccccc4)nc4ccc(N5CCOCC5)nc43)cc2s1 [Example 65, 6-(5-Morpholino-2-phenyl-imidazo[4,5-b]pyridin-3-yl)-3H-1,3-benzothiazol-2-one] | 316
2 | CN(C)c1ccc2nc(-c3ccccc3)n(-c3ccc4[nH]c(=O)sc4c3)c2n1 [Example 66, 6-[5-(Dimethylamino)-2-phenyl-imidazo[4,5-b]pyridin-3-yl]-3H-1,3-benzothiazol-2-one] | 12.6
3 | O=c1[nH]c2ccc(-n3c(-c4ccccc4)nc4ccc(C(F)F)nc43)cc2s1 [Example 67, 6-(5-(Difluoromethyl)-2-phenyl-3H-imidazo[4,5-b]pyridin-3-yl)benzo[d]thiazol-2(3H)-one] | 0.1
4 | O=c1[nH]c2ccc(-n3c(-c4ccc(C(F)F)cc4)nc4cccnc43)cc2s1 [Example 68, 6-[2-[4-(Difluoromethyl)phenyl]imidazo[4,5-b]pyridin-3-yl]-3H-1,3-benzothiazol-2-one] | 25.1
5 | O=c1[nH]c2ccc(-n3c(-c4ccccc4)nc4c(C(F)F)ccnc43)cc2s1 [Example 69, 6-[7-(Difluoromethyl)-2-phenyl-imidazo[4,5-b]pyridin-3-yl]-3H-1,3-benzothiazol-2-one] | 1.26
6 | CC(C)c1ccnc2c1nc(-c1ccccc1)n2-c1ccc2[nH]c(=O)sc2c1 [Example 70, 6-(7-Isopropyl-2-phenyl-imidazo[4,5-b]pyridin-3-yl)-3H-1,3-benzothiazol-2-one] | 0.631
7 | O=c1[nH]c2ccc(-n3c(-c4ccc(F)cc4)nc4ccc(CO)nc43)cc2s1 [Example 71, 6-(2-(4-Fluorophenyl)-5-(hydroxymethyl)-3H-imidazo[4,5-b]pyridin-3-yl)benzo[d]thiazol-2(3H)-one] | 39.8
8 | Cc1cc(O)c2nc(-c3ccc(F)cc3)n(-c3ccc4[nH]c(=O)sc4c3)c2n1 [Example 72, 6-(2-(4-Fluorophenyl)-7-hydroxy-5-methyl-3H-imidazo[4,5-b]pyridin-3-yl)benzo[d]thiazol-2(3H)-one] | 25.1
9 | O=C1Cc2cc(-n3c(CCCO)nc4ccc(C(F)(F)F)nc43)ccc2N1 [Example 73, 5-(2-(3-Hydroxypropyl)-5-(trifluoromethyl)-3H-imidazo[4,5-b]pyridin-3-yl)indolin-2-one] | 1260
10 | Cc1ccc2nc(C3CCC3)n(-c3ccc4c(c3)CC(=O)N4)c2n1 [Example 74, 5-(2-Cyclobutyl-5-methyl-imidazo[4,5-b]pyridin-3-yl)indolin-2-one] | 15.8
11 | CCc1nc2ccc(C)nc2n1-c1ccc2c(c1)CC(=O)N2 [Example 75, 5-(2-Ethyl-5-methyl-imidazo[4,5-b]pyridin-3-yl)indolin-2-one] | 251
12 | CC1(c2nc3ccc(C(F)(F)F)nc3n2-c2ccc3c(c2)CC(=O)N3)COC1 [Example 76, 5-[2-(3-Methyloxetan-3-yl)-5-(trifluoromethyl)imidazo[4,5-b]pyridin-3-yl]indolin-2-one] | 501
13 | COCCc1nc2ccc(C(F)(F)F)nc2n1-c1ccc2c(c1)CC(=O)N2 [Example 77, 5-[2-(2-Methoxyethyl)-5-(trifluoromethyl)imidazo[4,5-b]pyridin-3-yl]indolin-2-one] | 251
14 | c1cc2[nH]ncc2cc1-n1c(C2CCC2)nc2ccc(C3CC3)nc21 [Example 78, 2-Cyclobutyl-5-cyclopropyl-3-(1H-indazol-5-yl)imidazo[4,5-b]pyridine] | 0.158
15 | CC(C)c1nc2ccc(C3CC3)nc2n1-c1ccc2[nH]ncc2c1 [Example 79, 5-Cyclopropyl-3-(1H-indazol-5-yl)-2-isopropyl-imidazo[4,5-b]pyridine] | 2
16 | O=c1[nH]c2ccc(-n3c(C4CCC4)nc4ccc(C(F)(F)F)nc43)cc2o1 [Example 80, 6-[2-Cyclobutyl-5-(trifluoromethyl)imidazo[4,5-b]pyridin-3-yl]-3H-1,3-benzoxazol-2-one] | 2
17 | O=C(c1nc2ccc(C(F)(F)F)nc2n1-c1ccc2[nH]ncc2c1)N1CCC1 [Example 81, Azetidin-1-yl-[3-(1H-indazol-5-yl)-5-(trifluoromethyl)imidazo[4,5-b]pyridin-2-yl]methanone] | 501
18 | Nc1ccc2nc(-c3ccc(F)cc3)n(-c3ccc4[nH]c(=O)sc4c3)c2n1 [Example 82, 6-[5-Amino-2-(4-fluorophenyl)imidazo[4,5-b]pyridin-3-yl]-3H-1,3-benzothiazol-2-one] | 63.1
19 | CCC(CC)c1nc2ccc(C(F)(F)F)nc2n1-c1ccc2c(c1)CC(=O)N2 [Example 83, 5-[2-(1-Ethylpropyl)-5-(trifluoromethyl)imidazo[4,5-b]pyridin-3-yl]indolin-2-one] | 63.1
20 | Cc1ccc2nc(C(C)C)n(-c3ccc4c(c3)CC(=O)N4)c2n1 [Example 84, 5-(2-Isopropyl-5-methyl-imidazo[4,5-b]pyridin-3-yl)indolin-2-one] | 63.1
21 | O=C(Nc1ccccc1)c1nc2ccc(C(F)(F)F)nc2n1-c1ccc2[nH]ncc2c1 [Example 85, 3-(1H-Indazol-5-yl)-N-phenyl-5-(trifluoromethyl)imidazo[4,5-b]pyridine-2-carboxamide] | 79.4

Row | SMILES | IC50 [nM]
22 | Fc1ccc(-c2nc3ccc(C4CC4)nc3n2-c2ccc3[nH]ncc3c2)cc1 [Example 86, 5-Cyclopropyl-2-(4-fluorophenyl)-3-(1H-indazol-5-yl)imidazo[4,5-b]pyridine] | 0.794
23 | Cc1ccc2nc(C3CC3)n(-c3ccc4c(c3)CC(=O)N4)c2n1 [Example 87, 5-(2-Cyclopropyl-5-methyl-imidazo[4,5-b]pyridin-3-yl)indolin-2-one] | 79.4
24 | O=C1Cc2cc(-n3c(C(F)(F)F)nc4ccc(C(F)(F)F)nc43)ccc2N1 [Example 88, 5-[2,5-Bis(trifluoromethyl)imidazo[4,5-b]pyridin-3-yl]indolin-2-one] | 1.58
25 | FC(F)(F)c1ccc2nc(C(F)(F)F)n(-c3ccc4[nH]ncc4c3)c2n1 [Example 89, 3-(1H-Indazol-5-yl)-2,5-bis(trifluoromethyl)imidazo[4,5-b]pyridine] | 1.26
26 | FC(F)c1nc2ccc(C(F)(F)F)nc2n1-c1ccc2[nH]ncc2c1 [Example 90, 2-(Difluoromethyl)-3-(1H-indazol-5-yl)-5-(trifluoromethyl)imidazo[4,5-b]pyridine] | 3.16
27 | FC(F)(F)c1ccc2nc(-c3cccs3)n(-c3ccc4[nH]ncc4c3)c2n1 [Example 91, 3-(1H-Indazol-5-yl)-2-(2-thienyl)-5-(trifluoromethyl)imidazo[4,5-b]pyridine] | 3.98
28 | FC(F)(F)c1ccc2nc(-c3ccco3)n(-c3ccc4[nH]ncc4c3)c2n1 [Example 92, 2-(2-Furyl)-3-(1H-indazol-5-yl)-5-(trifluoromethyl)imidazo[4,5-b]pyridine] | 5.01
29 | CC(F)(F)c1nc2ccc(C(F)(F)F)nc2n1-c1ccc2c(c1)CC(=O)N2 [Example 93, 5-[2-(1,1-Difluoroethyl)-5-(trifluoromethyl)imidazo[4,5-b]pyridin-3-yl]indolin-2-one] | 7.94
30 | O=C1Cc2cc(-n3c(C(F)F)nc4ccc(C(F)(F)F)nc43)ccc2N1 [Example 94, 5-[2-(Difluoromethyl)-5-(trifluoromethyl)imidazo[4,5-b]pyridin-3-yl]indolin-2-one] | 50.1
31 | O=C1Cc2cc(-n3c(C4CC4)nc4ccc(Cl)nc43)ccc2N1 [Example 95, 5-(5-Chloro-2-cyclopropyl-imidazo[4,5-b]pyridin-3-yl)indolin-2-one] | 39.8
32 | CC(C)(C)Cc1nc2ccc(C(F)(F)F)nc2n1-c1ccc2c(c1)CC(=O)N2 [Example 97, 5-[2-(2,2-Dimethylpropyl)-5-(trifluoromethyl)imidazo[4,5-b]pyridin-3-yl]indolin-2-one] | 251
33 | Cc1nc2ccc(C(F)(F)F)nc2n1-c1ccc2[nH]ncc2c1 [Example 98, 3-(1H-Indazol-5-yl)-2-methyl-5-(trifluoromethyl)imidazo[4,5-b]pyridine] | 63.1
34 | CCc1nc2ccc(C(F)(F)F)nc2n1-c1ccc2c(c1)CC(=O)N2 [Example 99, 5-[2-Ethyl-5-(trifluoromethyl)imidazo[4,5-b]pyridin-3-yl]indolin-2-one] | 12.6
35 | CC(C)Cc1nc2ccc(C(F)(F)F)nc2n1-c1ccc2[nH]ncc2c1 [Example 101, 3-(1H-Indazol-5-yl)-2-isobutyl-5-(trifluoromethyl)imidazo[4,5-b]pyridine] | 25.1
36 | FC(F)(F)c1ccc2nc(C3CCC3)n(-c3ccc4[nH]ncc4c3)c2n1 [Example 103, 2-Cyclobutyl-3-(1H-indazol-5-yl)-5-(trifluoromethyl)imidazo[4,5-b]pyridine] | 1.58
37 | FC(F)(F)c1ccc2nc(C3CCCC3)n(-c3ccc4[nH]ncc4c3)c2n1 [Example 104, 2-Cyclopentyl-3-(1H-indazol-5-yl)-5-(trifluoromethyl)imidazo[4,5-b]pyridine] | 5.01
38 | CCc1nc2ccc(C(F)(F)F)nc2n1-c1ccc2[nH]ncc2c1 [Example 105, 2-Ethyl-3-(1H-indazol-5-yl)-5-(trifluoromethyl)imidazo[4,5-b]pyridine] | 7.94
39 | O=c1[nH]c2ccc(-n3c(C4CC4)nc4ccc(C(F)(F)F)nc43)cc2[nH]1 [Example 106, 5-[2-Cyclopropyl-5-(trifluoromethyl)imidazo[4,5-b]pyridin-3-yl]-1,3-dihydrobenzimidazol-2-one] | 2.51
40 | O=c1[nH]c2ccc(-n3c(C4CC4)nc4ccc(C(F)(F)F)nc43)cc2o1 [Example 107, 6-[2-Cyclopropyl-5-(trifluoromethyl)imidazo[4,5-b]pyridin-3-yl]-3H-1,3-benzoxazol-2-one] | 15.8
41 | CC(C)(C)c1nc2ccc(C(F)(F)F)nc2n1-c1ccc2[nH]ncc2c1 [Example 108, 2-tert-Butyl-3-(1H-indazol-5-yl)-5-(trifluoromethyl)imidazo[4,5-b]pyridine] | 20
42 | CC(C)c1nc2ccc(C(F)(F)F)nc2n1-c1ccc2[nH]ncc2c1 [Example 109, 3-(1H-Indazol-5-yl)-2-isopropyl-5-(trifluoromethyl)imidazo[4,5-b]pyridine] | 0.251
